For orientation: IC50 means the concentration that inhibits the measured activity by half.

Results on 32 compounds are retold here after ChEMBL document CHEMBL1126052, “2-Carboxytetrahydroquinolines. Conformational and stereochemical requirements for antagonism of the glycine site on the NMDA receptor” (J Med Chem, 1992).

The experiment concerns the target Glutamate NMDA receptor. Description: Concentration required to inhibit 50% of the specific binding of [3H]glycine to NMDA receptor prepared from rat cerebral cortex and hippocampus. The class given is tissue-based.
As to `O=C(O)[C@@H]1C[C@H](C(=O)O)c2c(Cl)cc(Cl)cc2N1`, the IC50 is 31.4 µM. On to `COC(=O)[C@H]1C[C@@H](C(=O)O)Nc2cc(Cl)ccc21`, for which the IC50 came out at 5.02 µM. `COC(=O)[C@H]1C[C@H](C(=O)O)Nc2cc(Cl)cc(I)c21` showed an IC50 of 3.09 µM. For `O=C(O)[C@@H]1C[C@H](C(=O)OCc2ccccc2)c2c(Cl)cc(Cl)cc2N1`, the IC50 was determined as 2.33 µM. On to `NC(=O)[C@H]1C[C@@H](C(=O)O)Nc2cc(Cl)cc(Cl)c21`, for which the IC50 was found to be 3.44 µM. The figure for `O=C(O)C[C@H]1C[C@H](C(=O)O)Nc2cc(Cl)cc(Cl)c21` is 0.134 µM. Consider `O=C(OCc1ccccc1)[C@H]1C[C@H](C(=O)O)Nc2cc(Cl)cc(Cl)c21`, for which the half-inhibitory concentration (IC50) stood at 1.05 µM.

The compound `NC(=O)[C@H]1C[C@H](C(=O)O)Nc2cc(Cl)cc(Cl)c21` gave a half-maximal inhibitory concentration (IC50) of 0.72 µM.

`Cc1cc(C)c2c(c1)NC(C(=O)O)CC2=O` (configuration not stated): the IC50 came out at 1.86 µM. For the compound `Cc1noc(C[C@H]2C[C@H](C(=O)O)Nc3cc(Cl)cc(Cl)c32)n1`, the IC50 is 2.53 µM. Compound `COC(=O)C[C@H]1C[C@H](C(=O)O)Nc2cc(Cl)cc(Cl)c21` gave an IC50 of 0.603 µM. Regarding `Cc1cc(C)c2c(c1)N[C@@H](C(=O)O)[C@@H](C)C2=O`, the 50% inhibitory concentration (IC50) was determined as 13.7 µM. `O=C(O)C1CCc2c(Cl)cc(Cl)cc2N1` (configuration not stated) came in with an IC50 of 6.39 µM.

In turn, `COC(=O)[C@H]1C[C@@H](C(=O)O)Nc2cccc(Cl)c21` came in with an IC50 of 26.1 µM.

`O=C1CC(C(=O)O)Nc2cc(Cl)ccc21` (configuration not stated) returned a 50% inhibitory concentration (IC50) of 2.36 µM.

Regarding `O=C1CC(C(=O)O)Nc2cccc(Cl)c21` (configuration not stated), the IC50 worked out at 6.96 µM.

`O=C(O)C[C@H]1C[C@@H](C(=O)O)Nc2cc(Cl)cc(Cl)c21`: the IC50 was determined as 15 µM. `O=C1CC(C(=O)O)Nc2cc(I)cc(Cl)c21` (configuration not stated): the IC50 was 3.84 µM. Compound `Cc1cc(C)c2c(c1)N[C@@H](C(=O)O)[C@H](C)C2=O` came in with a concentration for half-maximal inhibition (IC50) above 100 µM. In the case of `O=C1CC(C(=O)O)Nc2ccccc21` (configuration not stated), the IC50 was above 100 µM. `O=C1CC(C(=O)O)Nc2cc(Cl)cc(Cl)c21` (configuration not stated) had a half-inhibitory concentration (IC50) of 2.31 µM. `COC(=O)[C@H]1C[C@H](C(=O)O)Nc2cc(Br)cc(Br)c21` gave an IC50 of 2.89 µM. Compound `COC(=O)[C@H]1C[C@H](C(=O)O)Nc2cc(Cl)cc(Cl)c21` gave an IC50 of 2.47 µM. `O=C(O)[C@H]1C[C@H](C(=O)O)Nc2cc(Cl)cc(Cl)c21` came in with an IC50 of 20 µM. The compound `COC(=O)[C@H]1C[C@H](C(=O)O)Nc2cc(Cl)ccc21` had an IC50 of 16.9 µM. In turn, `O=C(O)c1cc(C(=O)O)c2c(Cl)cc(Cl)cc2n1` returned an IC50 above 100 µM. In the case of `COC(=O)[C@H]1C[C@H](C(=O)O)Nc2cccc(Cl)c21`, the IC50 was determined as 176 µM. To `COC(=O)[C@H]1C[C@@H](C(=O)O)Nc2cc(Cl)cc(I)c21` belongs 4.18 µM; to `COC(=O)[C@H]1C[C@@H](C(=O)O)Nc2cc(Br)cc(Br)c21`, 2.05 µM; to `COC(=O)[C@H]1C[C@@H](C(=O)O)Nc2cc(Cl)cc(Cl)c21`, 1.21 µM.

In turn, `O=C1CC(C(=O)O)Nc2cc(Cl)cc(I)c21` (configuration not stated) returned a half-maximal inhibitory concentration (IC50) of 0.36 µM. To `O=C1CC(C(=O)O)Nc2cc(Br)cc(Br)c21` (configuration not stated) belongs 1.29 µM.
